According to US11786514B2, “Sustained release aminopyridine composition” (priority 2003, dated 2023):

What was measured:
[1] = Multiple oral dose pharmacokinetics in patients with SCI (Example 3); conditions: both sexes, human, in vivo
Description: This example details the plasma concentration of different dosage tablets of a aminopyridine in compositions of the present invention administered to patients with spinal cord injury. Pharmacokinetic results are presented for the subset of 11 patients who completed all dose levels. […] The time of the peak and the plasma elimination half-lives were independent of dose. […] The […] of fampridine ranged from 5.7 to 6.9 hours. There were no apparent differences between males and females.

[2] = Single dose, dose proportionality pharmacokinetics and safety in patients with multiple sclerosis (Example 4); format: in vivo, human
Description: This example details the pharmacokinetic properties of Fampridine-SR in tablets of the present invention administered to patients with multiple sclerosis. Plasma samples were analyzed for fampridine using a validated LC/MS/MS assay with a sensitivity of 2 ng/mL. Noncompartmental pharmacokinetic parameter values were calculated using standard methodology.
This was an open-label, multi-center, dose proportionality study of orally administered fampridine in patients with multiple sclerosis. Single doses of fampridine were to be given in escalating doses (5 mg, 10 mg, 15 mg, and 20 mg) with at least a four-day interval between administration of each dose of drug. Safety evaluations were to be performed during the 24 hour period following administration of fampridine and blood samples were to be taken at the following times to determine pharmacokinetic parameters: hour 0 (pre-dose), hours 1-8, and hours 10, 12, 14, 18, and 24.
Twenty-three subjects received all 4 treatments, and one subject received only 3 treatments; data from all treatments were analyzed. Dose-dependent parameters (e.g., peak plasma concentration and areas-under-the curve) were normalized to a 10 mg dose for among-dose comparisons.

[3] = Steady state pharmacokinetics and safety in patients with MS (Example 5); format: in vivo, human
Description: This example describes the results of an open-label study to assess the steady state pharmacokinetics of orally administered fampridine (4-aminopyridine) compositions of the present invention in subjects with Multiple Sclerosis. […] Blood samples for pharmacokinetic analysis were collected on Days 1, 7/8, and 14/15 at the following intervals: immediately prior to drug administration (baseline), hourly for the first 8 hours, and 10, 12, and 24 hours post-dose. Additional blood samples were collected 14, 18, and 20 hours post-dose on Day 14, and 30 and 36 hours post-dose on Day 15.

[4] = Single escalating dose pharmacokinetics and tolerability in patients with chronic incomplete SCI (Example 6)
Description: Each patient was to receive each dose in an ascending fashion. Each dose was to be followed by a 7-day washout period. […] Patients were to continue their fast for 4 hours after dosing and then a standard meal was to be served. Blood samples for pharmacokinetic analysis were to be obtained at Hour 0 (immediately preceding study drug administration) and 1, 2, 3, 4, 5, 6, 8, 10, 12, 16, 20, and 24 hours after each dose. A baseline urine sample was to be collected prior to dosing and urine was to be collected for 24 hours after administration of the study drug at the following intervals: 0.1 to 4 hours; 4.1 to 8 hours; 8.1 to 12 hours; and 12.1 to 24 hours.

[5] = all doses 5-20 mg, mean and 95% confidence interval, patients with MS
[6] = 20 mg twice daily for two weeks, patients with MS
[7] = single doses 10-25 mg, patients with chronic incomplete SCI

Compound: Nc1ccncc1 [fampridine, 4-aminopyridine]
- Tmax [1]: 2.2 to 3 h
- half-life [1]: 5.7 to 6.9 h
- Cmax ([1]; po, 60 mg): 152 ng/mL
- terminal half-life [2, 5]: 5.47 (5.05, 5.89) h
- terminal rate constant [2, 5]: 0.14 (0.13, 0.15) h^−1
- area-under-the-concentration-time curve (normalized to a 10 mg dose) ([2]; human, in vivo): 254 (238, 270) ng-h/ml
- clearance ([2]; human, in vivo): 637 mL/min
- differences between pharmacokinetic parameters (AUC, Cmax, t1/2) normalized to the 10.0 mg dose ([2]; human, in vivo): no significant differences
- extrapolated area-under-the-concentration-time curve (normalized to a 10 mg dose) ([2]; human, in vivo): 284 (266, 302) ng-h/ml
- observed peak plasma fampridine concentration (normalized to a 10 mg dose) ([2]; human, in vivo): 24.12 (23.8, 26.6) ng/ml
- tolerability ([2]; single doses 5-20 mg, patients with MS): well tolerated
- changes in corrected QT intervals or QRS amplitudes [3, 6]: no apparent clinically significant changes
- changes in mean clinical laboratory values, vital signs, or physical examination findings from baseline to last visit [3, 6]: no clinically significant changes
- most common treatment-related adverse event [3, 6]: Dizziness
- other treatment-related adverse events [3, 6]: nausea, ataxia, insomnia, and tremor
- tolerability ([3]; 20 mg/dose twice daily for two weeks, subjects with multiple sclerosis): well tolerated
- Cmax ([4]; 25 mg single dose, fasted, patients with chronic incomplete SCI): 67.4 ng/mL
- time of peak concentration (mean tmax) post-dose, over dose levels ([4]; human, in vivo): 3 to 4 h
- Cmax ([4]; human, in vivo, 10 mg): 27.7 ng/mL
- AUC0-24h as percentage of AUC0-∞ [4, 7]: at least 92%
- mean plasma half-life (t1/2), independent of dose [4, 7]: approximately 6 hours
